Values after ≈ are worked out from the molar mass of the structure shown.
system: HCMV recombinant mutant virus (RV145); test: microbe, parasite or virus in culture; assay type: cell-based, human cytomegalovirus; details: HCMV
Outline: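 Read-out is beta-glucuronidase activity in cell lysates 96 h after infection, measured colorimetrically or fluorometrically. Reporter virus RV145 expresses the enzyme under a viral promoter in human foreskin fibroblasts treated with inhibitor.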

Row | SMILES | IC50 ug/ml HCMV
1 | Cc1ccc(NC(=S)Nc2ccc(NC(=O)c3ccccc3C)cc2)cc1Cl [Example 234] | 1 µg/mL (≈ 2.44 µM)
2 | Cc1ccc(NC(=S)Nc2ccc(NC(=O)c3c(F)cccc3F)cc2)cc1Cl [Example 235] | >10 µg/mL
3 | CN(c1ccc(NC(=S)Nc2ccc(NC(=O)c3ccccc3F)cc2)cc1Cl)C1CCCCC1 [Example 238] | >10 µg/mL
4 | O=C(Nc1ccc(NC(=S)Nc2ccc(Cl)c(C(F)(F)F)c2)cc1)c1ccccc1F [Example 244] | >10 µg/mL
5 | Cc1ccccc1C(=O)Nc1ccc(NC(=S)Nc2ccc(N(C)C3CCCCC3)c(Cl)c2)cc1 [Example 247] | >10 µg/mL
6 | CN(c1ccc(NC(=S)Nc2ccc(NC(=O)c3c(F)cccc3F)cc2)cc1Cl)C1CCCCC1 [Example 248] | 2 µg/mL (≈ 3.78 µM)
7 | COc1cccc(C(=O)Nc2ccc(NC(=S)Nc3ccc(N(C)C4CCCCC4)c(Cl)c3)cc2)c1 [Example 250] | >10 µg/mL
8 | COc1cc(OC)c(NC(=S)Nc2ccc(NC(=O)c3cccc(OC(C)=O)c3)cc2)cc1Cl [Example 253] | 8 µg/mL (≈ 16 µM)
9 | COc1cc(OC)c(NC(=S)Nc2ccc(NC(=O)c3cccc(O)c3)cc2)cc1Cl [Example 254] | 4 µg/mL (≈ 8.73 µM)
10 | COc1cc(OC)c(NC(=S)Nc2ccc(NC(=O)c3cccc4c3OCO4)cc2)cc1Cl [Example 255] | >10 µg/mL
11 | COc1cc(OC)c(NC(=S)Nc2ccc(NC(=O)c3cccc(OC(F)(F)F)c3)cc2)cc1Cl [Example 256] | 9 µg/mL (≈ 17.1 µM)
12 | COc1cc(OC)c(NC(=S)Nc2ccc(NC(=O)c3cccc(OCCN(C)C)c3)cc2)cc1Cl [Example 257] | 7 µg/mL (≈ 13.2 µM)
13 | COc1cc(OC)c(NC(=S)Nc2ccc(NC(=O)c3cccc(OCCN4CCOCC4)c3)cc2)cc1Cl [Example 258] | 5 µg/mL (≈ 8.76 µM)
14 | COc1cc(OC)c(NC(=S)Nc2ccc(NC(=O)c3ccccc3F)c(Cl)c2)cc1Cl [Example 278] | >10 µg/mL
15 | COc1cc(OC)c(NC(=S)Nc2ccc(NC(=O)c3ccccc3F)c(C(=O)c3ccccc3)c2)cc1Cl [Example 293] | >10 µg/mL
16 | CN1CCC(N(C)c2ccc(NC(=S)Nc3ccc(NC(=O)c4ccccc4F)cc3)cc2Cl)C1 (stereo not shown) [Example 332] | 0.9 µg/mL (≈ 1.76 µM)

system: HSV-1; test: HSV Antiviral (ELISA) Assay in Vero cells; assay type: cell-based, herpes simplex virus type 1; details: HSV-1, Vero cells
Outline: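 Viral replication was quantified by cell-fixed ELISA for HSV glycoprotein D, using a β-galactosidase reporter and fluorogenic umbelliferyl substrate, about 24 h after HSV-1 infection (MOI 0.006) of Vero cells. Compounds, at several concentrations, were added 30 min pre-infection. IC50 was derived from fluorescence relative to the compound-free signal.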

Row | SMILES | IC50 (ug/ml) HSV
17 | Cc1ccc(NC(=S)Nc2ccc(NC(=O)c3ccccc3C)cc2)cc1Cl [Example 234] | 0.2 µg/mL (≈ 0.488 µM)
18 | Cc1ccc(NC(=S)Nc2ccc(NC(=O)c3c(F)cccc3F)cc2)cc1Cl [Example 235] | 0.2 µg/mL (≈ 0.463 µM)
19 | CN(c1ccc(NC(=S)Nc2ccc(NC(=O)c3ccccc3F)cc2)cc1Cl)C1CCCCC1 [Example 238] | >10 µg/mL
20 | O=C(Nc1ccc(NC(=S)Nc2ccc(Cl)c(C(F)(F)F)c2)cc1)c1ccccc1F [Example 244] | >10 µg/mL
21 | Cc1ccccc1C(=O)Nc1ccc(NC(=S)Nc2ccc(N(C)C3CCCCC3)c(Cl)c2)cc1 [Example 247] | >10 µg/mL
22 | CN(c1ccc(NC(=S)Nc2ccc(NC(=O)c3c(F)cccc3F)cc2)cc1Cl)C1CCCCC1 [Example 248] | >10 µg/mL
23 | COc1cccc(C(=O)Nc2ccc(NC(=S)Nc3ccc(N(C)C4CCCCC4)c(Cl)c3)cc2)c1 [Example 250] | >10 µg/mL
24 | COc1cc(OC)c(NC(=S)Nc2ccc(NC(=O)c3cccc(OC(C)=O)c3)cc2)cc1Cl [Example 253] | 1.2 µg/mL (≈ 2.4 µM)
25 | COc1cc(OC)c(NC(=S)Nc2ccc(NC(=O)c3cccc(O)c3)cc2)cc1Cl [Example 254] | 0.9 µg/mL (≈ 1.97 µM)
26 | COc1cc(OC)c(NC(=S)Nc2ccc(NC(=O)c3cccc4c3OCO4)cc2)cc1Cl [Example 255] | 1.2 µg/mL (≈ 2.47 µM)
27 | COc1cc(OC)c(NC(=S)Nc2ccc(NC(=O)c3cccc(OC(F)(F)F)c3)cc2)cc1Cl [Example 256] | 2 µg/mL (≈ 3.8 µM)
28 | COc1cc(OC)c(NC(=S)Nc2ccc(NC(=O)c3cccc(OCCN(C)C)c3)cc2)cc1Cl [Example 257] | 2.5 µg/mL (≈ 4.73 µM)
29 | COc1cc(OC)c(NC(=S)Nc2ccc(NC(=O)c3cccc(OCCN4CCOCC4)c3)cc2)cc1Cl [Example 258] | 1.5 µg/mL (≈ 2.63 µM)
30 | COc1cc(OC)c(NC(=S)Nc2ccc(NC(=O)c3ccccc3F)c(Cl)c2)cc1Cl [Example 278] | >10 µg/mL
31 | COc1cc(OC)c(NC(=S)Nc2ccc(NC(=O)c3ccccc3F)c(C(=O)c3ccccc3)c2)cc1Cl [Example 293] | >50 µg/mL
32 | CN1CCC(N(C)c2ccc(NC(=S)Nc3ccc(NC(=O)c4ccccc4F)cc3)cc2Cl)C1 (stereo not shown) [Example 332] | 1 µg/mL (≈ 1.95 µM)

system: VZV strain Ellen; test: VZV Antiviral (ELISA) Assay in human foreskin fibroblast cells; assay type: cell-based, varicella-zoster virus; details: not given
Outline: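 Cell-based VZV (Ellen) spread assay in HFF, 3-day compound exposure in 2% FBS medium. Viral antigen quantified by fluorescent β-galactosidase ELISA; IC50 from inhibition of signal.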

Row | SMILES | IC50 (ug/ml) VZV
33 | Cc1ccc(NC(=S)Nc2ccc(NC(=O)c3ccccc3C)cc2)cc1Cl [Example 234] | >10 µg/mL
34 | Cc1ccc(NC(=S)Nc2ccc(NC(=O)c3c(F)cccc3F)cc2)cc1Cl [Example 235] | >10 µg/mL
35 | CN(c1ccc(NC(=S)Nc2ccc(NC(=O)c3ccccc3F)cc2)cc1Cl)C1CCCCC1 [Example 238] | >10 µg/mL
36 | O=C(Nc1ccc(NC(=S)Nc2ccc(Cl)c(C(F)(F)F)c2)cc1)c1ccccc1F [Example 244] | >10 µg/mL
37 | Cc1ccccc1C(=O)Nc1ccc(NC(=S)Nc2ccc(N(C)C3CCCCC3)c(Cl)c2)cc1 [Example 247] | 5 µg/mL (≈ 9.86 µM)
38 | CN(c1ccc(NC(=S)Nc2ccc(NC(=O)c3c(F)cccc3F)cc2)cc1Cl)C1CCCCC1 [Example 248] | 2 µg/mL (≈ 3.78 µM)
39 | COc1cccc(C(=O)Nc2ccc(NC(=S)Nc3ccc(N(C)C4CCCCC4)c(Cl)c3)cc2)c1 [Example 250] | >10 µg/mL
40 | COc1cc(OC)c(NC(=S)Nc2ccc(NC(=O)c3cccc(OC(C)=O)c3)cc2)cc1Cl [Example 253] | 6 µg/mL (≈ 12 µM)
41 | COc1cc(OC)c(NC(=S)Nc2ccc(NC(=O)c3cccc(O)c3)cc2)cc1Cl [Example 254] | 4 µg/mL (≈ 8.73 µM)
42 | COc1cc(OC)c(NC(=S)Nc2ccc(NC(=O)c3cccc4c3OCO4)cc2)cc1Cl [Example 255] | >10 µg/mL
43 | COc1cc(OC)c(NC(=S)Nc2ccc(NC(=O)c3cccc(OC(F)(F)F)c3)cc2)cc1Cl [Example 256] | >10 µg/mL
44 | COc1cc(OC)c(NC(=S)Nc2ccc(NC(=O)c3cccc(OCCN(C)C)c3)cc2)cc1Cl [Example 257] | 2.5 µg/mL (≈ 4.73 µM)
45 | COc1cc(OC)c(NC(=S)Nc2ccc(NC(=O)c3cccc(OCCN4CCOCC4)c3)cc2)cc1Cl [Example 258] | 1.5 µg/mL (≈ 2.63 µM)
46 | COc1cc(OC)c(NC(=S)Nc2ccc(NC(=O)c3ccccc3F)c(Cl)c2)cc1Cl [Example 278] | >10 µg/mL
47 | COc1cc(OC)c(NC(=S)Nc2ccc(NC(=O)c3ccccc3F)c(C(=O)c3ccccc3)c2)cc1Cl [Example 293] | >10 µg/mL
48 | CN1CCC(N(C)c2ccc(NC(=S)Nc3ccc(NC(=O)c4ccccc4F)cc3)cc2Cl)C1 (stereo not shown) [Example 332] | 8 µg/mL (≈ 15.6 µM)

same assay, conditions: 10 ug/ml

Row | SMILES | % inhibition 10 ug/ml VZV
49 | Cc1ccc(NC(=S)Nc2ccc(NC(=O)c3ccccc3C)cc2)cc1Cl [Example 234] | 68%
50 | Cc1ccc(NC(=S)Nc2ccc(NC(=O)c3c(F)cccc3F)cc2)cc1Cl [Example 235] | 50%
51 | CN(c1ccc(NC(=S)Nc2ccc(NC(=O)c3ccccc3F)cc2)cc1Cl)C1CCCCC1 [Example 238] | 38%
52 | O=C(Nc1ccc(NC(=S)Nc2ccc(Cl)c(C(F)(F)F)c2)cc1)c1ccccc1F [Example 244] | 18%
53 | Cc1ccccc1C(=O)Nc1ccc(NC(=S)Nc2ccc(N(C)C3CCCCC3)c(Cl)c2)cc1 [Example 247] | 74%
54 | CN(c1ccc(NC(=S)Nc2ccc(NC(=O)c3c(F)cccc3F)cc2)cc1Cl)C1CCCCC1 [Example 248] | 96%
55 | COc1cccc(C(=O)Nc2ccc(NC(=S)Nc3ccc(N(C)C4CCCCC4)c(Cl)c3)cc2)c1 [Example 250] | 42%
56 | COc1cc(OC)c(NC(=S)Nc2ccc(NC(=O)c3cccc(OC(C)=O)c3)cc2)cc1Cl [Example 253] | 100%
57 | COc1cc(OC)c(NC(=S)Nc2ccc(NC(=O)c3cccc(O)c3)cc2)cc1Cl [Example 254] | 110%
58 | COc1cc(OC)c(NC(=S)Nc2ccc(NC(=O)c3cccc4c3OCO4)cc2)cc1Cl [Example 255] | 0%
59 | COc1cc(OC)c(NC(=S)Nc2ccc(NC(=O)c3cccc(OC(F)(F)F)c3)cc2)cc1Cl [Example 256] | 15%
60 | COc1cc(OC)c(NC(=S)Nc2ccc(NC(=O)c3cccc(OCCN(C)C)c3)cc2)cc1Cl [Example 257] | 105%
61 | COc1cc(OC)c(NC(=S)Nc2ccc(NC(=O)c3cccc(OCCN4CCOCC4)c3)cc2)cc1Cl [Example 258] | 92%
62 | COc1cc(OC)c(NC(=S)Nc2ccc(NC(=O)c3ccccc3F)c(Cl)c2)cc1Cl [Example 278] | 15%
63 | COc1cc(OC)c(NC(=S)Nc2ccc(NC(=O)c3ccccc3F)c(C(=O)c3ccccc3)c2)cc1Cl [Example 293] | 2%
64 | CN1CCC(N(C)c2ccc(NC(=S)Nc3ccc(NC(=O)c4ccccc4F)cc3)cc2Cl)C1 (stereo not shown) [Example 332] | 90%
